Data on 1 compound can be found in PMC6407204, “Oral administration of the cannabigerol derivative VCE-003.2 promotes subventricular zone neurogenesis and protects against mutant huntingtin-induced neurodegeneration” (Translational Neurodegeneration, 2019).

Each structure is given as a SMILES string. Where two headings read alike, the source gives them in different places.

Series [1] is described as follows: Pharmacokinetics in rats, plasma and brain by LC-MS/MS. To be noted: rat; for concentration at 24 h: brain at 24 h; for AUC(0-t) / Cmax / Tmax: plasma; for bioavailability: oral 50 mg/kg vs i.v. 10 mg/kg, dose-corrected AUCt ratio. It counts as in vivo, Sprague Dawley rats. As for the experimental part:
Six-week old male Sprague Dawley rats (Janvier Labs, France) were located in the rodent area of Eurofins ADME Bioanalyses (Vergèze, France) and housed under standard conditions (12-h light/dark cycle) in groups with access to food and water ad libitum. Each animal was identified by an ear tag and examined for general health and welfare. Process, treatment and euthanasia were conducted according to the current procedures in use at Eurofins ADME Bioanalyses. Animals were treated with a single intravenous bolus of VCE-003.2 (10 mg/Kg in DMSO) or with oral VCE-003.2 (50 mg/Kg in sesame oil). At the prescribed times, blood (0.5 ml) was collected using a capillary tube and plasma frozen at − 20 °C until analysis. After 24 h, the animals were anesthetized and perfused with 20 mL of saline solution directly into the heart to extract the maximal blood sample from the brain. Plasma samples (100 μl) were mixed with 300 μl of acetonitrile and after protein precipitation, analysis of VCE-003.2 content was performed using LC-MS/MS (3 animals per each time point). For brain samples, the tissues were homogenized with an Ultra-turrax® using UHQ water (1/1, w/w). 100 μl of each homogenate was mixed with 300 μl of acetonitrile and the mixture centrifuged for 5 min at 25,000 g. Brain homogenate supernatants were directly measured by LC-MS/MS. Previous studies have shown that there are not significant differences between mice and rats in the main pharmacokinetic parameters of different cannabinoids, including CBG [18]. As the dose used here was different between i.v. and oral routes of administration, bioavailability was calculated taking into account the dose as follows: [AUCt (oral)/dose (oral)]/[AUCt(i.v.)/dose(i.v.)].

A further series has as its system S. typhimurium TA100. Kind of series: AMES reverse mutation assay, TA100. Type of series: cell-based. The protocol: Supplementary file 40035_2019_148_MOESM4_ESM.pdf: Additional file 4: AMES Data Summary. AMES Experimental Procedure. Approximately ten million bacteria are exposed in triplicate to VCE-003-.2 (7.8, 15.6, 31.3, 62.5, 125 and 250 μg/ml), a negative control (vehicle) and a positive control for 90 min in medium containing a low concentration of histidine (sufficient for about 2 doublings). The cultures were then diluted into indicator medium lacking histidine and dispensed into 48 wells of a 384 well plate (micro-plate format, MPF). The plate was incubated for 48 h at 37 °C, and the number of wells showing growth were counted and compared to the vehicle control. An increase in the number of colonies of at least two-fold over baseline (mean + SD of the vehicle control) and a dose response indicates a positive response. […] Where indicated, S9 fraction from the livers of Aroclor 1254-treated rats was included in the incubation at a final concentration of 4.5%. An NADPH-regenerating system is also included to ensure a steady supply of reducing equivalents. The strains used in this study were S. typhimurium TA98 (hisD3052, rfa, uvrB/pKM10 for detection of frame-shift mutations) and S. typhimurium TA100 ([…], rfa, uvrB/pKM101 for detection of base-pair substitutions). VCE-003.2 was assessed for its mutagenic potential in the AMES reverse mutation assay. This test was performed in the absence and presence of S9 metabolic activation. […] The positive controls all behaved as expected. (PDF 568 kb)

For series [2], the system named is osteoblast differentiation. To be noted: compared with full PPARγ-agonists; cited from earlier work.
Setting [3] is: male, Sprague Dawley, in vivo, iv, single i.v. 10 mg/kg.
The mark [4] stands for this setting: male, Sprague Dawley, in vivo, single oral 50 mg/kg in sesame oil.

The term AUC(0-t) denotes the area under the concentration-time curve up to a stated or last time point. For orientation: Cmax means the peak of the concentration-time curve. What is called Tmax is the time at which the peak concentration occurs. For orientation: bioavailability means the share of a dose that reaches the circulation, judged against a reference dose that is usually intravenous. For the compound `CCCCCC1=C(NCC)C(=O)C(CC=C(C)CCC=C(C)C)=C(O)C1=O` [VCE-003.2, 2-(3,7-dimethyl-octa-2,6-dienyl)-6-ethylamino-3-hydroxy-5-pentyl-(1,4) benzoquinone], the concentration at 24 h in series [1] (setting [3]) amounted to 93.7 ± 37.7 ng/mL; in series [1] (male, Sprague Dawley, in vivo, single oral 50 mg/kg), 86.8 ± 34 ng/mL. For the same compound, the area under the curve AUC(0-t) in series [1] (setting [3]) was determined as 475 µg·h/mL; in series [1] (setting [4]) it was 327 µg·h/mL. The Cmax stood at 83200 ng/mL in series [1] (setting [3]) and 20300 ng/mL in series [1] (setting [4]). Moreover, the values for the Tmax in series [1] (setting [3]) and in series [1] (setting [4]) were 0.08 h and 8 h, respectively. Besides, the bioavailability in series [1] (male, Sprague Dawley, in vivo, read-out: Bioavailability) was 13.8%; in series [1], 13.77%. For the same compound, the “AMES Result” value is reported as “Negative” in the series on S. typhimurium TA100 (TA100, S9 no) and “Negative” with S. typhimurium TA100 (TA100, S9 yes). Besides, the “interference with osteoblast differentiation” value in series [2] was “does not interfere with osteoblast differentiation”.
